Results taken from paper PMC5515859, “Metabolism of F18, a Derivative of Calanolide A, in Human Liver Microsomes and Cytosol” (Frontiers in Pharmacology, 2017).
Where two headings read alike, the source gives them in different places.

What was measured:
CYP2A6 = details: cited from earlier work
[1] = system: carbonyl reductases in HLcy; assay: Inhibition of carbonyl reduction of F18 (formation of M3-1 and M3-2) by chemical inhibitors in HLcy; format: in vitro ADME, human; details: F18 10 μM, 10 min
Experimental: F18 (10 μM) was incubated with HLMs (0.5 mg/mL) and the NADPH-generating system for 30 min or with HLcy and a cofactor (NADPH or NADH) for 10 min in the presence of chemical inhibitors under the above-described conditions. Control incubations using the vehicles but not the chemical inhibitors were also performed. The formation of M3-1 and M3-2 was quantified by LC-MS/MS.
The amounts of F18, M1, M2-9, M3-1, M3-2, M5-2, M5-3, M5-4, and M5-5 in the incubations were simultaneously quantified with the LC-MS/MS system. […] The sheath gas, auxiliary gas, spray voltage and tube lens parameters were the same as those for the metabolic profiling studies.

CYP2B6 = details: cited from earlier work
CYP2C9 = details: cited from earlier work
human liver microsomes = assay: Incubation of F18 with human liver microsomes, metabolite profiling by LC-MS/MS; format: in vitro ADME; design: key: +: Metabolite detected; −: metabolite not detected; details: F18 50 μM, 1 h
Experimental: (§1) A stock solution of F18 (5 mM) was prepared in methanol. F18 (50 μM) was incubated with RLMs/DLMs/MLMs/HLMs and HLcy (0.5 mg protein/mL) in 50 mM Tris-HCl buffer containing 5 mM MgCl2 (pH 7.4) in a final volume of 200 μL. The final concentration of methanol in the incubation system was 1% (v/v). After 3 min of preincubation at 37°C, the reactions were initiated by the addition of NADPH-regenerating system (10-mM β-NADP, 100-mM 6-G-P and 10-U/mL 6-G-P-DH) or NADH. After incubation for 1 h, the reactions were terminated by the addition of two volumes of ice-cold acetonitrile. Samples without NADPH or NADH were included as controls. The incubation mixture was vortexed and centrifuged at 13,300 × g for 5 min. A 10 μL aliquot of the supernatant was injected into an LC-tandem mass spectrometer (LC-MS/MS) for analysis.
(§2) Metabolic profiling studies were performed with a Finnigan TSQ Quantum MS instrument with an electrospray ionization probe and a Finnigan SURVEYOR HPLC system (Thermo Finnigan, San Jose, CA, USA). HPLC was performed with a Zorbax SB-C18 column (2.1 × 100 mm, 3.5 μm, Agilent Corporation, CA, USA) with a column temperature of 35°C and a flow rate of 200 μL/min. F18 and its metabolites were eluted using a linear gradient method with a mobile phase consisting of solvent A (water with 0.1% formic acid) and solvent B (acetonitrile with 0.1% formic acid). […] The samples were analyzed in the positive-ionization mode, and the TSQ capillary temperature was set to 350°C. Nitrogen was used as both the sheath gas and the auxiliary gas and was delivered at 30 psi and 15 psi, respectively. The spray voltage and tube lens were set to 3,800 V and 123 V, respectively. The full-width half maximum (FWHM) was set to 0.7. MS data were acquired in the selective ion-recording mode or by collecting full scans from 200 to 600 m/z at 1 scan/s. The mass spectrometer and HPLC system were operated using Xcalibur 2.0.7 software.

monkey liver microsomes = assay: Incubation of F18 with monkey liver microsomes, metabolite profiling; format: in vitro ADME; design: key: +: Metabolite detected; −: metabolite not detected; details: F18 50 μM, 1 h
Experimental: as §1, §2

rat liver microsomes = assay: Incubation of F18 with rat liver microsomes, metabolite profiling; format: in vitro ADME; design: key: +: Metabolite detected; −: metabolite not detected; details: F18 50 μM, 1 h
Experimental: as §1, §2

VSV-G/HIV-1 viruses = assay: microbe, parasite or virus in culture; format: cell-based; details: Human immunodeficiency virus 1, HEK-293T, 48 h, read-out: IC50, inhibition of HIV-1 replication
human liver cytosol = assay: Incubation of F18 with human liver cytosol, metabolite profiling; format: in vitro ADME; design: key: +: Metabolite detected; −: metabolite not detected; details: F18 50 μM, 1 h
Experimental: as §1, §2

dog liver microsomes = assay: Incubation of F18 with dog liver microsomes, metabolite profiling; format: in vitro ADME, beagle dog; design: key: +: Metabolite detected; −: metabolite not detected; details: F18 50 μM, 1 h
Experimental: as §1, §2

CYP2C8 = system: CYP2C8; design: method as in FDA Drug Development and Drug Interactions; details: ref FDA Drug Development and Drug Interactions, cited from earlier work; for Ki: read-out: inhibitor Ki, CYP2C8
[2] = HLcy with NADH, high concentration: dicumarol 50 μM, 4-methylpyrazole 500 μM
[3] = HLcy with NADH, low concentration: dicumarol 10 μM, 4-methylpyrazole 100 μM
[4] = HLcy with NADPH, high concentration: dicumarol 50 μM, 4-methylpyrazole 500 μM
[5] = HLcy with NADPH, low concentration: dicumarol 10 μM, 4-methylpyrazole 100 μM
[6] = HLcy, cofactor not given, high concentration 50 μM
[7] = HLcy, cofactor not given, low concentration 10 μM
[8] = read-out: inhibitor Ki, CYP2C9, ref FDA Drug Development and Drug Interactions
[9] = read-out: inhibitor Ki, CYP2B6, ref FDA Drug Development and Drug Interactions
[10] = read-out: inhibitor Ki, CYP2A6, ref FDA Drug Development and Drug Interactions

N[C@@H]1C[C@H]1c1ccccc1 (racemic) [Tranylcypromine, tranylcypromine]
Ki (CYP2A6): 20 to 200 nM

Cc1cn[nH]c1 [4-methylpyrazole]
Percentage of inhibition of the formation of M3-1, H [1, 2]: N.I. | Percentage of inhibition of the formation of M3-2, H [1, 2]: N.I. | Percentage of inhibition of the formation of M3-1, L [1, 3]: N.I. | Percentage of inhibition of the formation of M3-2, L [1, 3]: N.I. | Percentage of inhibition of the formation of M3-1, H [1, 4]: N.I. | Percentage of inhibition of the formation of M3-2, H [1, 4]: N.I. | Percentage of inhibition of the formation of M3-1, L [1, 5]: N.I. | Percentage of inhibition of the formation of M3-2, L [1, 5]: N.I.

C[C@H](CCC(=O)O)[C@H]1CC[C@H]2[C@@H]3[C@H](O)C[C@@H]4C[C@H](O)CC[C@]4(C)[C@H]3CC[C@]12C [Chenodeoxycholic, chenodeoxycholic acid]
Percentage of inhibition of the formation of M3-1, H [1, 6]: 69.3% | Percentage of inhibition of the formation of M3-2, H [1, 6]: 81.2% | Percentage of inhibition of the formation of M3-1, L [1, 7]: 50.8% | Percentage of inhibition of the formation of M3-2, L [1, 7]: 62.3%

COC(=O)[C@H](c1ccccc1Cl)N1CCc2sccc2C1 [Clopidogrel]
Ki (CYP2B6): 500 nM

O=C(O)Cc1ccccc1Nc1c(Cl)cccc1Cl [Diclofenac]
Km (CYP2C9): 3.4 to 52 µM

O=c1oc2ccccc2c(O)c1Cc1c(O)c2ccccc2oc1=O [Dicumarol, dicumarol]
Percentage of inhibition of the formation of M3-1, H [1, 2]: 51.5% | Percentage of inhibition of the formation of M3-2, H [1, 2]: 49.6% | Percentage of inhibition of the formation of M3-1, L [1, 3]: 16.0% | Percentage of inhibition of the formation of M3-2, L [1, 3]: 6.7% | Percentage of inhibition of the formation of M3-1, H [1, 4]: 70.6% | Percentage of inhibition of the formation of M3-2, H [1, 4]: 82.2% | Percentage of inhibition of the formation of M3-1, L [1, 5]: 52.3% | Percentage of inhibition of the formation of M3-2, L [1, 5]: 67.7%

OC(Cn1cncn1)(Cn1cncn1)c1ccc(F)cc1F [Fluconazole]
Ki (CYP2C9; [8]): 7000 nM

O=C(O)c1ccccc1Nc1cccc(C(F)(F)F)c1 [Flufenamic acid, flufenamic acid]
Percentage of inhibition of the formation of M3-1, H [1, 6]: 87.9% | Percentage of inhibition of the formation of M3-2, H [1, 6]: 94.0% | Percentage of inhibition of the formation of M3-1, L [1, 7]: 82.4% | Percentage of inhibition of the formation of M3-2, L [1, 7]: 88.5%

CC1=CC(=O)c2ccccc2C1=O [Menadione, menadione]
Percentage of inhibition of the formation of M3-1, H [1, 6]: 45.9% | Percentage of inhibition of the formation of M3-2, H [1, 6]: 58.4% | Percentage of inhibition of the formation of M3-1, L [1, 7]: 7.7% | Percentage of inhibition of the formation of M3-2, L [1, 7]: 20.1%

CC=Cc1cc(=O)oc2c3c(c4c(c12)OC(C)(C)C=C4)OC(CCl)CC3=O (stereo not drawn) [Metabolite M2-9]
F18 metabolite detected in HLM (human liver microsomes): + | F18 metabolite detected in MLM (monkey liver microsomes): − | F18 metabolite detected in RLM (rat liver microsomes): + | IC50 (VSV-G/HIV-1 viruses): 110 nM | F18 metabolite detected in HLcy with NADH (human liver cytosol): − | F18 metabolite detected in HLcy with NADPH (human liver cytosol): − | F18 metabolite detected in DLM (dog liver microsomes): −

CC(O)Cc1cc(=O)oc2c3c(c4c(c12)OC(C)(C)C=C4)OC(CCl)CC3=O (stereo not drawn) [Metabolite M5-2]
F18 metabolite detected in HLM (human liver microsomes): + | F18 metabolite detected in MLM (monkey liver microsomes): + | F18 metabolite detected in RLM (rat liver microsomes): + | F18 metabolite detected in HLcy with NADH (human liver cytosol): − | F18 metabolite detected in HLcy with NADPH (human liver cytosol): − | F18 metabolite detected in DLM (dog liver microsomes): +

CC(O)Cc1cc(=O)oc2c3c(c4c(c12)OC(C)(C)C=C4)OC(CCl)CC3=O (stereo not drawn) [Metabolite M5-3]
F18 metabolite detected in HLM (human liver microsomes): + | F18 metabolite detected in MLM (monkey liver microsomes): + | F18 metabolite detected in RLM (rat liver microsomes): + | F18 metabolite detected in HLcy with NADH (human liver cytosol): − | F18 metabolite detected in HLcy with NADPH (human liver cytosol): − | F18 metabolite detected in DLM (dog liver microsomes): +

CCC(O)c1cc(=O)oc2c3c(c4c(c12)OC(C)(C)C=C4)OC(CCl)CC3=O (stereo not drawn) [Metabolite M5-4]
F18 metabolite detected in HLM (human liver microsomes): + | F18 metabolite detected in MLM (monkey liver microsomes): + | F18 metabolite detected in RLM (rat liver microsomes): + | F18 metabolite detected in HLcy with NADH (human liver cytosol): − | F18 metabolite detected in HLcy with NADPH (human liver cytosol): − | F18 metabolite detected in DLM (dog liver microsomes): −

CCC(O)c1cc(=O)oc2c3c(c4c(c12)OC(C)(C)C=C4)OC(CCl)CC3=O (stereo not drawn) [Metabolite M5-5]
F18 metabolite detected in HLM (human liver microsomes): + | F18 metabolite detected in MLM (monkey liver microsomes): + | F18 metabolite detected in RLM (rat liver microsomes): + | F18 metabolite detected in HLcy with NADH (human liver cytosol): − | F18 metabolite detected in HLcy with NADPH (human liver cytosol): − | F18 metabolite detected in DLM (dog liver microsomes): −

c1ccc(C2(N3CCCCC3)CCCCC2)cc1 [Phencyclidine]
Ki (CYP2B6; [9]): 10000 nM

CCC1(c2ccccc2)C(=O)NC(=O)NC1=O [Phenobarbital, phenobarbital]
Percentage of inhibition of the formation of M3-1, H [1, 6]: N.I. | Percentage of inhibition of the formation of M3-2, H [1, 6]: N.I. | Percentage of inhibition of the formation of M3-1, L [1, 7]: N.I. | Percentage of inhibition of the formation of M3-2, L [1, 7]: N.I.

O=c1c(O)c(-c2ccc(O)c(O)c2)oc2cc(O)cc(O)c12 [Quercetin, quercetin]
Percentage of inhibition of the formation of M3-1, H [1, 6]: 80.4% | Percentage of inhibition of the formation of M3-2, H [1, 6]: 87.0% | Percentage of inhibition of the formation of M3-1, L [1, 7]: 41.5% | Percentage of inhibition of the formation of M3-2, L [1, 7]: 54.6% | Ki (CYP2C8): […]

CC(=O)O[C@H]1C(=O)[C@@]2(C)[C@H]([C@H](OC(=O)c3ccccc3)[C@]3(O)C[C@H](OC(=O)[C@H](O)[C@@H](NC(=O)c4ccccc4)c4ccccc4)C(C)=C1C3(C)C)[C@]1(OC(C)=O)CO[C@@H]1C[C@@H]2O [Taxol]
Km (CYP2C8; Taxol 6-hydroxylation, N-DesethylAmodiaquine, read-out: substrate Km, CYP2C8): 5.4 to 19 µM

COc1cc(Cc2cnc(N)nc2N)cc(OC)c1OC [Trimethoprim]
Ki (CYP2C8): 32000 nM

CC(NC(C)(C)C)C(=O)c1cccc(Cl)c1 (stereo not drawn) [bupropion]
Km (CYP2B6; read-out: substrate Km, CYP2B6, bupropion-hydroxylation, ref FDA Drug Development and Drug Interactions): 67 to 168 µM

CNCCC(Oc1ccc(C(F)(F)F)cc1)c1ccccc1 (stereo not drawn) [fluoxetine]
Ki (CYP2C9; [8]): 18000 to 41000 nM

CCc1ccc(CCOc2ccc(CC3SC(=O)NC3=O)cc2)nc1 (stereo not drawn) [pioglitazone]
Ki (CYP2C8): 1700 nM

NCCc1c[nH]c2ccccc12 [tr ypta mine]
Ki (CYP2A6; [10]): 1700 nM

medroxyprogesterone
Percentage of inhibition of the formation of M3-1, H [1, 6]: 24.9% | Percentage of inhibition of the formation of M3-2, H [1, 6]: 38.8% | Percentage of inhibition of the formation of M3-1, L [1, 7]: 24.3% | Percentage of inhibition of the formation of M3-2, L [1, 7]: 35.8%
